# Assay results: ChEMBL document CHEMBL1201862, “PubChem BioAssay data set” (2004)
# Active and inactive are the calls of the source.
# Legend:
# [1] = molecular target: ADP-ribosylation factor GTPase-activating protein 1 (Rattus norvegicus, UniProt Q62848); test: Fluorescence polarization-based biochemical high throughput dose response screening assay to identify inhibitors of ADP-ribosylation factor GTPase activating protein 1 (ARFGAP1).; format: functional
# [2] = molecular target: T1, Tyrosine-protein phosphatase non-receptor type 5 (Homo sapiens, UniProt P54829); test: STEP phosphatase inhibitors, confirmation, biochemical, fluorescence intensity, uHTS hits (AID 602372); format: functional; conditions: read-out: IC50_Mean
# T1 sequence (P54829 whole entry): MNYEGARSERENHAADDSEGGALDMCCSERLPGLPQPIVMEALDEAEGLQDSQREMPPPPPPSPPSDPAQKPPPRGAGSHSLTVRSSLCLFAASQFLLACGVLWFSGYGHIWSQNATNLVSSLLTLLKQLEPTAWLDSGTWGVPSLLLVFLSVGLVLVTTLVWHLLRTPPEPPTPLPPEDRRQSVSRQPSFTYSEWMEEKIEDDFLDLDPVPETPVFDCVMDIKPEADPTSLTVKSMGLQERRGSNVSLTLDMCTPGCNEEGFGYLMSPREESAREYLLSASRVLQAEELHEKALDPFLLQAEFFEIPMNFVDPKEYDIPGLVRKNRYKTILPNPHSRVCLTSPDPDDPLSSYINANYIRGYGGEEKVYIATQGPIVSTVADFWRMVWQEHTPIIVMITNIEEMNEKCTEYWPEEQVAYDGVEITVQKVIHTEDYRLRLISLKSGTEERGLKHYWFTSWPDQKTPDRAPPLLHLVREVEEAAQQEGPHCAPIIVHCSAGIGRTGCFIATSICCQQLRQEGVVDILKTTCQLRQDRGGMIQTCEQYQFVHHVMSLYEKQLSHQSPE
# [3] = molecular target: Tyrosine-protein phosphatase non-receptor type 22 (Homo sapiens, UniProt Q9Y2R2); test: PTPN22 phosphatase inhibition, dose response, selectivity assay for STEP inhibitor project, biochemical (AID 624241); format: functional
# [4] = molecular target: T2, Tyrosine-protein phosphatase non-receptor type 11 (Homo sapiens, UniProt Q06124); test: SHP2 phosphatase inhibition, dose response, selectivity assay for STEP inhibitor project, biochemical (AID 602367); format: functional; conditions: read-out: IC50_Mean
# T2 sequence (Q06124 whole entry): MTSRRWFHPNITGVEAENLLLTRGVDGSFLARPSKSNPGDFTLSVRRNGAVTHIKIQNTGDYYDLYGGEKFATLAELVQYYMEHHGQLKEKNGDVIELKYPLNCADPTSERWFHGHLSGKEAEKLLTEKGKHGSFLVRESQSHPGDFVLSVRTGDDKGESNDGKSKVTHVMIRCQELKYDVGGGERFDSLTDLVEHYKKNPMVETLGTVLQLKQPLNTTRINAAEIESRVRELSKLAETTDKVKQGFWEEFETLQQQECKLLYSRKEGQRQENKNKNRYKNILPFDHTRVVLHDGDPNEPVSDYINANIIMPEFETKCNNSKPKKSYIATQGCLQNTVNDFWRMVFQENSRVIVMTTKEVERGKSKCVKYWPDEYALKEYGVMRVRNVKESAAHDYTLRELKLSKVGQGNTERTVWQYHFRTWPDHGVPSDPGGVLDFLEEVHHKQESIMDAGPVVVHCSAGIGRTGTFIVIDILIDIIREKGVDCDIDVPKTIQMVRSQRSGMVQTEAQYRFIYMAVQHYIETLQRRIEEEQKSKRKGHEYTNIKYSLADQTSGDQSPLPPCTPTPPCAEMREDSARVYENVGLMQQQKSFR
# [5] = molecular target: G-protein coupled receptor 55 (Homo sapiens, UniProt Q9Y2T6); test: GPR55 antagonists blocking LPI-driven arrestin recruitment, primary screen, imaging, U2OS, beta-arrestin-GFP, LPI agonist (AID 2013); format: functional;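 note: antagonist potency measured as reduced agonist-driven arrestin aggregation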
# [6] = molecular target: Dual specificity protein phosphatase 3 (Homo sapiens, UniProt P51452); test: VHR phosphatase inhibition, dose response, selectivity assay for STEP inhibitor project, biochemical (AID 602374); format: functional; conditions: read-out: IC50_Mean
# [7] = molecular target: T3, Rac GTPase-activating protein 1 (Homo sapiens, UniProt Q9H0H5); test: MgcRacGAP GTPase-activating activity inhibitors, confirmation, biochemical, ADP Hunter fluorescence, primary and confirmatory (AID 624330); format: functional
# T3 sequence (Q9H0H5 whole entry): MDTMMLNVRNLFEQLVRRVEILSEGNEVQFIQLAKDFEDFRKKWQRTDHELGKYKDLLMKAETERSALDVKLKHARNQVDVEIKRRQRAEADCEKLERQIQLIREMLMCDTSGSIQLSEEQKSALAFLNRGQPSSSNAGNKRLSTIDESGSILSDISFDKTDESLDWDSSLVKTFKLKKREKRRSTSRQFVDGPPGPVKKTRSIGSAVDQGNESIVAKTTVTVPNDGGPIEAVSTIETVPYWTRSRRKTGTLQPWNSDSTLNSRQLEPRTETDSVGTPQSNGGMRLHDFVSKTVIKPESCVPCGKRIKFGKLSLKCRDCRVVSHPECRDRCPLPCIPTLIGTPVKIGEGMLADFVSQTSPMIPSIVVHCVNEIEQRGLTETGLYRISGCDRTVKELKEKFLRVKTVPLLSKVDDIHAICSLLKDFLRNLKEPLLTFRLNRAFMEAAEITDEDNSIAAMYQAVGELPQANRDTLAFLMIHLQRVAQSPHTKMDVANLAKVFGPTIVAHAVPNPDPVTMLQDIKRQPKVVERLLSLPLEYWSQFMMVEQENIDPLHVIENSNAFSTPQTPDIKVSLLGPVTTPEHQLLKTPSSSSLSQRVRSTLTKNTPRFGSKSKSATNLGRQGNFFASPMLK
# [8] = HeLa cell cytotoxicity, dose response, cytotoxicity control for MgcRacGAP inhibitor project (AID 624300); format: functional
# Nonstructural protein 1 = Nonstructural protein 1 (Influenza A virus, UniProt Q194T2); format: functional, Influenza A virus (A/California/07/2009(H1N1))
# [9] = Counterscreen for inhibitors of Trypanosoma brucei methionyl tRNA synthetase (MetRS): Luminescence-based cell-based high throughput dose response assay to identify compounds that are cytotoxic to Jurkat human T lymphocyte cells.; format: functional; conditions: Homo sapiens, Jurkat
# [10] = molecular target: T4, Methionyl-tRNA synthetase, putative (Trypanosoma brucei brucei, UniProt Q38C91); format: functional, Trypanosoma brucei brucei strain 927/4 GUTat10.1
# T4 sequence (Q38C91 whole entry): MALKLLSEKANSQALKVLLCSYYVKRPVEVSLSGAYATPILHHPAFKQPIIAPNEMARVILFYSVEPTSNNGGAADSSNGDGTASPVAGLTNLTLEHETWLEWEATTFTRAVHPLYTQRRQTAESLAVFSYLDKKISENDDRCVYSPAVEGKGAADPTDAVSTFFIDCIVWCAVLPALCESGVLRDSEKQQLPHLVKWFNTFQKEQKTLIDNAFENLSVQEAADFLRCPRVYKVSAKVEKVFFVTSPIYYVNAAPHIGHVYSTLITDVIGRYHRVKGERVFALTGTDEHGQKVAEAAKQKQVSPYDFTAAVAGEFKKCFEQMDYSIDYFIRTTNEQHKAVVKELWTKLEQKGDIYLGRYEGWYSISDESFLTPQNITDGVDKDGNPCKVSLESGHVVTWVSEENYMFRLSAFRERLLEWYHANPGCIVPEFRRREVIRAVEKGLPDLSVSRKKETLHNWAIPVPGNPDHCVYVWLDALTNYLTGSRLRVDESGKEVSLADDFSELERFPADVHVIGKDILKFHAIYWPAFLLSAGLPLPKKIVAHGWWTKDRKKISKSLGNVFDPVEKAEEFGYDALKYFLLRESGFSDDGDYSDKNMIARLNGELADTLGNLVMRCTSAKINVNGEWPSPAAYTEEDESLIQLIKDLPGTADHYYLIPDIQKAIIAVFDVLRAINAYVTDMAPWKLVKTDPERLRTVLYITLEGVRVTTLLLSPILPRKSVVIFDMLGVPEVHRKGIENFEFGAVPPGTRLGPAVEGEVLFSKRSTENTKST
# [11] = molecular target: T4, Methionyl-tRNA synthetase, putative; format: functional, Trypanosoma brucei brucei strain 927/4 GUTat10.1; remark: listed apart in the source
# cells = format: functional
# [12] = Fluorescence-based cell-based high throughput dose response assay for inhibitors of the interaction of nucleotide-binding oligomerization domain containing 2 (NOD2) and the receptor-interacting serine-threonine kinase 2 (RIPK2).; format: functional; conditions: Homo sapiens
# [13] = molecular target: T5, Replicative DNA helicase DnaB (Mycobacterium tuberculosis, UniProt P9WMR3); test: DnaB intein splicing inhibitors, dose response, biochemical, cell-free fluorescence (AID 449749); format: functional
# T5 sequence (P9WMR3 whole entry): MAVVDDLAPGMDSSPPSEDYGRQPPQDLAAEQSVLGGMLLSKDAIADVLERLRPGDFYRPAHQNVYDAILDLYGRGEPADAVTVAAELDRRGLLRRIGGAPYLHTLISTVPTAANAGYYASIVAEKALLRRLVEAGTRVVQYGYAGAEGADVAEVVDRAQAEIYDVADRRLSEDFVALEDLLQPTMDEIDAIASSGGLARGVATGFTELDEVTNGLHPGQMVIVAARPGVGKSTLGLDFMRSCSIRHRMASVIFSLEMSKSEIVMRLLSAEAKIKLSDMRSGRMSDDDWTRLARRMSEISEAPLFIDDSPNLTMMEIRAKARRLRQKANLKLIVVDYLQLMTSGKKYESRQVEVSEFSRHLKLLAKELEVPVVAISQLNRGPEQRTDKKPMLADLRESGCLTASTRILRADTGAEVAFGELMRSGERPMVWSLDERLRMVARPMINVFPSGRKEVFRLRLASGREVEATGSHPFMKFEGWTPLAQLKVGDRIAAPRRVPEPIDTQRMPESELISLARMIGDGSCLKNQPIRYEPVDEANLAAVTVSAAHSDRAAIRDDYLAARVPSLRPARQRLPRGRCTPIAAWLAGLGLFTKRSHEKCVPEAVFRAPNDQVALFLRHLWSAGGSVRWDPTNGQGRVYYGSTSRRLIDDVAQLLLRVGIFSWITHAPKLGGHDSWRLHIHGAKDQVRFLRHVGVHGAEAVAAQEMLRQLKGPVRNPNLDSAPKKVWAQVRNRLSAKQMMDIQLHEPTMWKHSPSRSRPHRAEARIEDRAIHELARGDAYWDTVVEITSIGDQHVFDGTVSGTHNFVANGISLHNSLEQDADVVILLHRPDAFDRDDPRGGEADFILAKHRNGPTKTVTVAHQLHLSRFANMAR
# [14] = THP-1 cell cytotoxicity, dose response, cytotoxicity control for non-replicating M. tuberculosis project (AID 489025); format: functional
# Protein RecA = molecular target: T6, Protein RecA (Mycobacterium tuberculosis, UniProt P9WHJ3); test: Fluorescence Cell-Free Homogeneous Dose Retest to Identify Inhibitors of RecA-Intein Splicing Activity. [Related pubchem assays (depositor defined):AID2097, AID2223, AID489010, AID492950]; format: functional
# T6 sequence (P9WHJ3 whole entry): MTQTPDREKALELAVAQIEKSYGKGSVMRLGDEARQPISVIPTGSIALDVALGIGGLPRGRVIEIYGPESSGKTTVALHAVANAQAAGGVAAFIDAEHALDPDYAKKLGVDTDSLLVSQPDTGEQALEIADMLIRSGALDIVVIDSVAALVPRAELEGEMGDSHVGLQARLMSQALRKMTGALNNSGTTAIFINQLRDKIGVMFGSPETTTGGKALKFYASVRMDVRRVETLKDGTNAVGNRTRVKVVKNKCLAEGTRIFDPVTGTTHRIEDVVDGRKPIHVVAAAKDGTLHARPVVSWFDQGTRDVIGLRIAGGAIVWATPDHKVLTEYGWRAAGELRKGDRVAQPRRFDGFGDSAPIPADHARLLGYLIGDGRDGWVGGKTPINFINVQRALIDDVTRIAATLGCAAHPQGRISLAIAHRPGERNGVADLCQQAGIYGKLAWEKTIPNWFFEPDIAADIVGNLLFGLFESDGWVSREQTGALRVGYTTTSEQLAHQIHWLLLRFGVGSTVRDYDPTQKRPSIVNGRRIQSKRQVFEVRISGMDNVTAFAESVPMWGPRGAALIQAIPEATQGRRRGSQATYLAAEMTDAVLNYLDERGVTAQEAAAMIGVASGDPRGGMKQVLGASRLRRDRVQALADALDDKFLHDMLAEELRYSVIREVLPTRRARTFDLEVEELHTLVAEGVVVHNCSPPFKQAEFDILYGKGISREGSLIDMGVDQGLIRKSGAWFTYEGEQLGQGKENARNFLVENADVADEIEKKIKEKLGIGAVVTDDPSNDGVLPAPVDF
# [15] = Vero E6 cell cytotoxicity, dose response, cytotoxicity control for non-replicating M. tuberculosis project, secondary assay (AID 492998); format: functional, VeroE6; conditions: Vero C1008
# [16] = molecular target: T7, Low molecular weight phosphotyrosine protein phosphatase (Homo sapiens, UniProt P24666); format: functional; conditions: read-out: IC50_Mean
# T7 sequence (P24666 whole entry): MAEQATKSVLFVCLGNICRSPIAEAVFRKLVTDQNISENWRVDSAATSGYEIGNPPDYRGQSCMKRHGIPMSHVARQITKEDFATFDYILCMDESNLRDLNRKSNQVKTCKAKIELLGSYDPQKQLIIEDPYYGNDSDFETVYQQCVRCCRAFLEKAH
# Nonstructural protein 1, sequence (Q194T2 whole entry): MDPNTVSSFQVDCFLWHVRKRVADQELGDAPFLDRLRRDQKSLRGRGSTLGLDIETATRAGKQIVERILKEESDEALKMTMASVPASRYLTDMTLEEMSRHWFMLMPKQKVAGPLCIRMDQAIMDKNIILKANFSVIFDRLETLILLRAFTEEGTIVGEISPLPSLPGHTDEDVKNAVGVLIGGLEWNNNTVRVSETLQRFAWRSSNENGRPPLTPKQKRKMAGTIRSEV
# Dual specificity protein phosphatase 3, sequence (P51452 whole entry): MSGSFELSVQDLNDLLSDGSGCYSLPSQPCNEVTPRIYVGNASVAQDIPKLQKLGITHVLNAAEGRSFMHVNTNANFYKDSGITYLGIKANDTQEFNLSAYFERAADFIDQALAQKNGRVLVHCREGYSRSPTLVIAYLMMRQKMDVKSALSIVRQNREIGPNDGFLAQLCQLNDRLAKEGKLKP
# Tyrosine-protein phosphatase non-receptor type 22, sequence (Q9Y2R2 whole entry): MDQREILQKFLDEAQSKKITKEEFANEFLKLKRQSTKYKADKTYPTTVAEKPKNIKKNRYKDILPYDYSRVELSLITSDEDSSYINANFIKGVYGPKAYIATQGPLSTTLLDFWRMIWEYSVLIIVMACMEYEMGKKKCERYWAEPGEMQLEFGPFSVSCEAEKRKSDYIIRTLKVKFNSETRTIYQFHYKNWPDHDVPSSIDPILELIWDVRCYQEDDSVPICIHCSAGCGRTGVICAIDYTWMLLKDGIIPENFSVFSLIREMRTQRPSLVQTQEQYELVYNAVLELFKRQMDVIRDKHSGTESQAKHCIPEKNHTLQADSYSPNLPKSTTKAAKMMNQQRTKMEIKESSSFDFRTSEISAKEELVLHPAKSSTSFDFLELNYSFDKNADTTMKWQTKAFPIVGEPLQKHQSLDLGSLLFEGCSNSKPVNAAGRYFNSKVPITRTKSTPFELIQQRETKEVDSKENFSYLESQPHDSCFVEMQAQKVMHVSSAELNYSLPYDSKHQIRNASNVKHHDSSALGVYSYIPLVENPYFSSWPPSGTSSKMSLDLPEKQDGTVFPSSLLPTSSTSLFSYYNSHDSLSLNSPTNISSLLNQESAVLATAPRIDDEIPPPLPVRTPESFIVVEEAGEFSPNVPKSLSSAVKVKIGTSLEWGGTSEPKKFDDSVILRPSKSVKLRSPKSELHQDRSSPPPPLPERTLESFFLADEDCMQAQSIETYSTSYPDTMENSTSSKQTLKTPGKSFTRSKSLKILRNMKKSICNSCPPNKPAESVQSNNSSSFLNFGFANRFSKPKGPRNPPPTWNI
# G-protein coupled receptor 55, sequence (Q9Y2T6 whole entry): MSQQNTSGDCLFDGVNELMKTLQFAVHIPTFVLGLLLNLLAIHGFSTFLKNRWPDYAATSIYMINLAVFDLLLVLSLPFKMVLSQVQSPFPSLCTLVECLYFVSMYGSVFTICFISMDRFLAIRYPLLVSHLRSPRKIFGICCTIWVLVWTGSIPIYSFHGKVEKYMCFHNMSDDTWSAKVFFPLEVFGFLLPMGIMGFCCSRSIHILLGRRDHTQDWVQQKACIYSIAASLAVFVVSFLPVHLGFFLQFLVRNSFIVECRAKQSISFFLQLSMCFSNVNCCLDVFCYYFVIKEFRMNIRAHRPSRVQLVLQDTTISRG
# ADP-ribosylation factor GTPase-activating protein 1, sequence (Q62848 whole entry): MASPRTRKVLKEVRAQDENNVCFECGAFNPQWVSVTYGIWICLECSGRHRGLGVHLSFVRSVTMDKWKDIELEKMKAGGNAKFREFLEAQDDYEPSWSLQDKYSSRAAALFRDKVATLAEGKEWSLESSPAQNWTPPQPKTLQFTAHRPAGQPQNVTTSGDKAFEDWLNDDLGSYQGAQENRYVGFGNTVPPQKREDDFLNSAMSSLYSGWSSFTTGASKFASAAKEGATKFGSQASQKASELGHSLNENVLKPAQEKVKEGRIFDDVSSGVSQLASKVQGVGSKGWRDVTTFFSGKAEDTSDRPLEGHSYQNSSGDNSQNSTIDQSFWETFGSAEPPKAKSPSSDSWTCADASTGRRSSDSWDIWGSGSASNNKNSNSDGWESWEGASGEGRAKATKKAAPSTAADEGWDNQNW
compound,measurement,setting,value
Cc1cc(OCC(=O)Nc2cccnc2)c2c(C)c(C)c(=O)oc2c1,IC50,[1],64.9 µM (inactive)
COc1ccccc1NS(=O)(=O)c1cc(NC(=S)NCCN2CCOCC2)ccc1N1CCOCC1,IC50,[2],8.37 µM (active)
same,IC50,[3],31.4 µM (inactive)
same,IC50,[4],0.891 µM (active)
same,IC50,[5],3.2 µM (active)
same,IC50,[6],0.498 µM (active)
COc1ccc2c(c1)-c1c(ssc1=S)C(C)(C)N2,IC50,[7],29.4 µM (active)
same,CC50,[8],100 µM (active)
same,IC50,Nonstructural protein 1,22.7 µM (active)
O=S(=O)(c1ccc2[nH]c(SCc3ccc(Cl)cc3)nc2c1)N1CCOCC1,IC50,[9],16.9 µM (inactive)
O=S(=O)(c1ccc2nc(SCc3ccc(Cl)cc3)[nH]c2c1)N1CCOCC1,IC50,[10],32.3 µM (inactive)
same,IC50,[11],30.8 µM (inactive)
Cc1noc2ncnc(Sc3ccccc3Cl)c12,IC50,cells,9.99 µM (active)
same,IC50,[12],4.4 µM (active)
same,AC50,[13],12.2 µM (active)
same,CC50,[14],20.2 µM (active)
same,EC50,Protein RecA,4.04 µM (active)
same,CC50,[15],16.9 µM (active)
NC(=S)NN=C1Cc2cccc3cccc1c23,IC50,[16],4.94 µM (active)
